In patent US9586959B2, “Substituted tricyclic heterocycles as histamine 4 receptor inhibitors” (C&C RESEARCH LABORATORIES, priority 2011, dated 2017):
Converted amounts (≈) assume the structure as drawn. Where two headings read alike, the source gives them in different places.

How the values were obtained:
[1] = molecular target: human histamine 4 receptor (hH4R) (Homo sapiens (Human), UniProt Q9H3N8); assay: Binding affinity of human histamine 4 receptor (hH4R), [3H] labeled histamine displacement; conditions: hH4R-overexpressed cell membrane, [3H] histamine
Chain of human histamine 4 receptor (hH4R) (Q9H3N8 whole entry): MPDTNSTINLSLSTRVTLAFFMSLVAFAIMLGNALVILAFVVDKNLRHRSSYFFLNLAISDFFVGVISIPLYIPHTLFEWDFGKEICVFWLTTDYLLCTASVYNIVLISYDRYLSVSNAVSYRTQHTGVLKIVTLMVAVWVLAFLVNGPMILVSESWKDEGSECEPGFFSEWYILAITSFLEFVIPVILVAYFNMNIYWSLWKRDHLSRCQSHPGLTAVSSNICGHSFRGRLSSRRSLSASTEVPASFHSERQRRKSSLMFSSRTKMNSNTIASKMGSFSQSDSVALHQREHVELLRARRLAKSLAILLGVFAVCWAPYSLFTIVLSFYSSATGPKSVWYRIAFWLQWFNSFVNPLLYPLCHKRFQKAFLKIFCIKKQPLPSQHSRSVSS
How it was run: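 Membranes of hH4R-overexpressing cells (25 μg) incubated with compound and [3H]histamine (diluted to 1 μM before addition) for 30 min at 27° C. Non-specific binding defined with histamine (100 μM before addition); bound radioligand collected by filtration on PEI-presoaked glass fibre, washed with 50 mM Tris-HCl pH 7.4, counted by scintillation (CPM).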

[2] = molecular target: human histamine 3 receptor (hH3R) (Homo sapiens (Human), UniProt Q9Y5N1); assay: Binding affinity of human histamine 3 receptor (hH3R), [3H] labeled N-α-methylhistamine displacement; conditions: hH3R-overexpressed cell membrane, [3H] N-α-methylhistamine
Chain of human histamine 3 receptor (hH3R) (Q9Y5N1 whole entry): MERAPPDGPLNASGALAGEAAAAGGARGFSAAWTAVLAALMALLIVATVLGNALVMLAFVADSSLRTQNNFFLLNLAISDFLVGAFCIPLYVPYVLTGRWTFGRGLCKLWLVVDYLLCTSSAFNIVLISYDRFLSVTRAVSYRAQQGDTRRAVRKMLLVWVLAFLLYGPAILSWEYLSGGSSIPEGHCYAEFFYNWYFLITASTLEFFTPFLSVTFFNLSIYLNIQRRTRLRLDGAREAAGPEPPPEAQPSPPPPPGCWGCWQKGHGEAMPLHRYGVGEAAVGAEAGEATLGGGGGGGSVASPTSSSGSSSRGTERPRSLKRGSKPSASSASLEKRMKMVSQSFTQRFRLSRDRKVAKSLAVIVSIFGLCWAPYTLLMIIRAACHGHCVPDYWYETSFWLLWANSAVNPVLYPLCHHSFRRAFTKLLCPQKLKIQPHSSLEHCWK
How it was run: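 Membranes from cells overexpressing hH3R (15 μg) were incubated with compound and [3H]N-α-methylhistamine (20 μM stock) in 50 mM Tris-HCl pH 7.4, 5 mM MgCl2 for 30 min at 27 °C. Bound radioligand was counted by scintillation after filtration; 200 μM (R)(−)-α-methylhistamine stock defined non-specific binding; IC50 derived.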

[3] = molecular target: human serotonin 3 receptor (human 5-HT3 receptor) (Homo sapiens (Human), UniProt P46098); assay: Binding affinity of human serotonin 3 receptor (performed at Cerep)
Chain of human serotonin 3 receptor (human 5-HT3 receptor) (P46098 24-478): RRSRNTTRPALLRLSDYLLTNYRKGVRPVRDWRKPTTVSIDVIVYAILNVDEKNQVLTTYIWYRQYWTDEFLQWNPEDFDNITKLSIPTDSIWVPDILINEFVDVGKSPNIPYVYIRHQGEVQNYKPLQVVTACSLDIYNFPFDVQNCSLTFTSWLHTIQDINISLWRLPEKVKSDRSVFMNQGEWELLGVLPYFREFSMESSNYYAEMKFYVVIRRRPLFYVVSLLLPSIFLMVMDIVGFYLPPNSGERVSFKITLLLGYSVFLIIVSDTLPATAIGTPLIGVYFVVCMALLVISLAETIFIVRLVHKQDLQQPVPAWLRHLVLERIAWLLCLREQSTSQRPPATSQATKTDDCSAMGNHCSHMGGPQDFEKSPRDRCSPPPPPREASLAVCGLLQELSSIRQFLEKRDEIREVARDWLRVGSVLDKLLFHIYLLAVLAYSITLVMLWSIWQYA
Description: The binding assays of the human serotonin 3 receptor for present invention were performed at Cerep (Poitiers, France), and the results of analysis are shown in Table 3.

[4] = Solubility in artificial gastrointestinal tract solution; format: physicochemical; conditions: for solubility at 1 h / solubility at 2 h: artificial gastrointestinal tract solution, thermodynamic from solid; for solubility at 1 h: fassgf or other biorelevant; for solubility at 2 h: fassif
How it was run: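 Two media were used: pH 1.2 NaCl/HCl with Triton X-100, and pH 6.5 phosphate buffer with sodium taurocholate and lecithin. Heated sample solutions were filtered to remove undissolved compound, diluted 1:1 with CH3CN, and solubility was measured by liquid chromatography.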

[5] = Mouse pharmacokinetics (oral); format: in vivo; conditions: ICR mouse, 5 mg/mL solution at 10 mL/kg; for Cmax / AUC(0-inf) / half-life: plasma, 50 mg/kg; for AUC(0-inf): read-out: Mouse pharmacokinetics AUCinf; for half-life: read-out: Mouse pharmacokinetics t1/2 (converted)
Description: (§1) The weight of each ICR mouse and SD rat was properly 20˜30 g and 200˜300 g, and dosage of the compound of the present invention was 10 mL/kg for mice and 5 mL/kg for rats, and administered orally using Zonde. Blood collection was performed at 0.25, 0.5, 1, 2, 4, 6, 8 and 24 hours by orbital venous blood collection using a capillary tube coated with an anticoagulant, and then plasma was isolated using a centrifuge and kept in a freezer.
(§2) Plasma collected from animals and standard concentration material were pretreated using solid-phase extraction, and concentration of the compound of the invention was determined using a liquid chromatography mass spectrometer (Agilent HPLC, API-3000).
(§3) According to the resulting concentration value, the pharmacokinetics parameter was found using WinNonlin (Version 6.2) and half-life (t1/2), maximum blood concentration (Cmax) and infinite area under the curve (AUCinf) are shown in Tables 6 and 7 below.

[6] = Rat pharmacokinetics (oral); format: in vivo; conditions: SD rat, 2 mg/mL solution at 5 mL/kg
Description: as §1, §2, §3

[7] = test system: histamine-induced mast cell migration (trachea); assay: Histamine-induced mast cell migration; format: in vivo, Balb/c mice; conditions: 20 mg/kg oral, 0.1 M histamine aerosol, 2 days
Description: Female, Balb/c mice (7 weeks old, 20±3 g) were purchased from OrientBio Co., Ltd.
The animals were housed under conditions of controlled temperature (23±3° C.), humidity (50±5%) and lighting with food and water available ad libitum.
Mice were dosed with either vehicle (20% cyclodextrin in second distilled water) or the compound by orally administration. The Compound (20 mg/kg) dissolved in a vehicle and administered orally at a volume of 10 mL/kg. After 15 minutes, mice were challenged by a 20 min aerosol inhalation of PBS (phosphate buffered saline) or 0.1 M histamine (dissolving in PBS). This process was repeated for 2 days. After a final challenge, the tracheae were cleared of blood via perfusion of PBS and tracheae were extracted, the tracheae were fixed in 10% (w/v) formaldehyde for subsequent paraffin cross-sectioning and toluidine blue staining. Total mast cells were calculated, and a mean was reported. (The Journal of Pharmacology and Experimental Therapeutics, 2004, 309, 404-413). Statistical analysis was analyzed using one-way ANOVA with Dunnett test. Values of p<0.05 were considered statistically significant.

[8] = Metabolic stability in mouse microsome; conditions: mouse microsome 1 mg/mL, 5 μM compound, 1 mM NADPH
[9] = Metabolic stability in human microsome; conditions: human microsome 1 mg/mL, 5 μM compound, 1 mM NADPH
[10] = test system: histamine-induced itching, ICR mice; assay: Histamine-induced itching model in ICR mice; format: in vivo; conditions: 50 mg/kg oral, histamine 300 nmol intradermal, 20 min count
Description: Female, ICR mice (8 weeks old) were purchased from OrientBio Co., Ltd. The animals were housed under conditions of controlled temperature (23±3° C.), humidity (50±5%) and lighting with food and water available ad libitum.
The hair was clipped using clippers (8000AD, THRIVE) over the rostral part of the back 24 hours before the experiment under anesthesia with isoflurane. Histamine (300 nmol) was dissolved in saline and a volume of 40 μL injected intradermally into the rostral part of the back. Mice were dosed with either vehicle (20% cyclodextrin in second distilled water) or the compound by orally administration. The Compound (50 mg/kg) dissolved in a vehicle (20% cyclodextrin in second distilled water) and administered orally at a volume of 10 mL/kg.
Mice (n=10 per group) were divided into 3 groups (normal group, control group and experimental group). The animals were randomized for similar body weight distribution. A vehicle or the compound was administered 20 minutes before injection of histamine or saline. Immediately after intradermal injection, the animals were returned to an acrylic cage (approximately 30×30×30 cm, access production) composed of four cells, to which they had been acclimated for at least 1 hour before the experiment, for observation of itch responses. A camera (Samsung, VLUUNV30) was positioned above the mice to record their response. Itch was measured by blinded counting of the number of scratching in the 20 min period immediately after the intradermal injection. A number of scratching was defined as 3 or more individual rapid scratch movements with the hind paws around the injection site (J. Allergy Clin. Immunol. 2007, 19(1), 176-183). All data were analyzed by using Excel and Prism, and all values are expressed as the mean±S.E.M. The inhibitory effect of compounds is shown as a percentage of the maximal response to histamine (100% control group).
Statistical analysis was analyzed using one-way ANOVA with Dunnett test. Values of p<0.05 were considered statistically significant.

[11] = microsomes, 5 μM, pH 7.4
[12] = microsomes, 5 μM, pH 7.4; remark: listed apart in the source
[13] = test system: oxazolone-induced atopic dermatitis, Balb/c mice; assay: Oxazolone-induced atopic dermatitis model in Balb/c mice; format: in vivo; conditions: 100 mg/kg, BID, oral, days 8-28
Description: Female, Balb/c mice (6 weeks old, 20±3 g) were purchased from OrientBio Co., Ltd. The animals were housed under conditions of controlled temperature (23±3° C.), humidity (50±5%) and lighting with food and water available ad libitum.
On the beginning day (day 1), mice were sensitized by the topical application of 50 μL of 1% oxazolone in acetone and olive oil (4:1 ratio) on the abdominal skin. On day 8, 10, 12, 15, 17, 19, 22, 24 and 26, 25 μL of 0.2% oxazolone was applied topically on the inner side of right ear of each mouse. Between days 8 and 28, the compound of the invention was administered orally (10 mL/kg) twice a day in the morning and afternoon, and on days 12, 19 and 27, the thickness of the right ear of the mouse was measured. On day 28, the ear tissue of the mouse was extracted, fixed in 10% formalin solution, and then a tissue slide was prepared, stained with H&E (hematoxylin & eosin), and then the thickness of the ear was observed (Journal of Investigative Dermatology, 2008, 128, 79-86). Statistical analysis was analyzed using one-way ANOVA with Dunnett test. Values of p<0.05 were considered statistically significant.

[14] = first solution pH 1.2, 2 mg/mL sample, 37° C. 1 hour
[15] = second solution pH 6.5, 2 mg/mL sample, 37° C. 2 hours

Row | Compound | IC50 [1] | IC50 [2] | solubility at 1 h [4, 14] | solubility at 2 h [4, 15] | Cmax [5] | AUC(0-inf) [5] | half-life [5] | Mast cell migration (% change from control group) [7] | Metabolic stability (CLh. int), Mouse [8] | Metabolic stability (CLh. int), Human [9] | further results
1 | CNC1CN(c2nc3ncc(C#N)cc3n3cnnc23)C1 [Compound 25, 4-(3-(Methylamino)azetidin-1-yl)pyrido[2,3-e][1,2,4]triazolo[4,3-a]pyrazin-8-carbonitrile] | 100 nM | > 100000 nM | 1930 µg/mL (≈ 6.87 mM) | 1380 µg/mL (≈ 4.94 mM) | 9760 ng/mL | 14000 ng·h/mL | 1.17 h | 48.4^1% | 4590 µL/min/mg | 4160 µL/min/mg | inhibition at 10 µM ([3]; read-out: % inhibition degree at 10 μM, human serotonin 3 receptor (h5-HT3R)): 0%; IC50 ([3]; read-out: Binding affinity (IC50) of human serotonin 3 receptor (h5-HT3R)): > 10000 nM; Cmax ([6]; plasma, 10 mg/kg): 970 ng/mL; AUC(0-inf) ([6]; plasma, 10 mg/kg, read-out: Rat pharmacokinetics AUCinf): 2920 ng·h/mL; half-life ([6]; plasma, 10 mg/kg, read-out: Rat pharmacokinetics t1/2 (converted)): 2.21 h
2 | Cc1nc2c3cc(Cl)cnc3nc(N3CCN(C)CC3)n2n1 [Compound 31, 9-Chloro-2-methyl-5-(4-methylpiperazin-1-yl)pyrido[3,2-e][1,2,4]triazolo[1,5-c]pyrimidine] | 16 nM | > 100000 nM | 2010 µg/mL (≈ 6.33 mM) | 1980 µg/mL (≈ 6.23 mM) | 11700 ng/mL | 22400 ng·h/mL | 1.79 h | – | 28630 µL/min/mg | 5190 µL/min/mg | Number of scratching (% changes from control group) [10]: 89.3^1%
3 | Clc1cnc2nc(N3CCN4CCCC4C3)c3nncn3c2c1 (centres unmarked) [Compound 29, 8-Chloro-4-(hexahydropyrrolo[1,2-a]pyrazin-2(1H)-yl)pyrido[2,3-e][1,2,4]triazolo[4,3-a]pyrazine] | 49 nM | – | 1560 µg/mL (≈ 4.73 mM) | 1990 µg/mL (≈ 6.04 mM) | – | – | – | – | – | – | Metabolic stability (CLh. int), Mouse [11]: 12070 µL/min/mg; Metabolic stability (CLh. int), Human [12]: 3950 µL/min/mg
4 | CN1CCN(c2nc3ccc(Cl)cc3n3cnnc23)CC1 [reference compound] | 22 nM | 9000 nM | – | – | – | – | – | 23.1^1% | 111630 µL/min/mg | 10990 µL/min/mg | Solubility, First solution (pH = 1.2) [4, 14]: 1708.3 μg/mL; Solubility, Second solution (pH = 6.5) [4, 15]: 320.1 μg/mL; Mouse pharmacokinetics AUCinf [5]: 6650 ng·h/mL; Mouse pharmacokinetics Cmax [5]: 3840 ng/mL; Mouse pharmacokinetics t1/2 [5]: 3.49 h; Rat pharmacokinetics AUCinf [6]: 1060 ng·h/mL; Rat pharmacokinetics Cmax [6]: 490 ng/mL; Rat pharmacokinetics t1/2 [6]: 1.09 h; Ear epidermis thickness (% change from control group) [13]: 8.0%
